Experimental data from US20080176936A1, “Classes of Compounds that Interact with Integrins” (priority 2005, published 2008).

Each molecule was assayed against T1, αllbβ3 integrin (Homo sapiens, UniProt P05106+P08514) (assay: ELISA: inhibition of binding of αllbβ3 integrin membrane preparation to coated extracellular matrix protein). Settings: substrate fibrinogen, human platelet membrane preparation.
T1 construct: Human platelet membrane preparations were used as a source of αllbβ3 integrin; from tissue; host or cells: human platelets (membrane preparation)
T1 sequence (P08514 32-887 limits assumed): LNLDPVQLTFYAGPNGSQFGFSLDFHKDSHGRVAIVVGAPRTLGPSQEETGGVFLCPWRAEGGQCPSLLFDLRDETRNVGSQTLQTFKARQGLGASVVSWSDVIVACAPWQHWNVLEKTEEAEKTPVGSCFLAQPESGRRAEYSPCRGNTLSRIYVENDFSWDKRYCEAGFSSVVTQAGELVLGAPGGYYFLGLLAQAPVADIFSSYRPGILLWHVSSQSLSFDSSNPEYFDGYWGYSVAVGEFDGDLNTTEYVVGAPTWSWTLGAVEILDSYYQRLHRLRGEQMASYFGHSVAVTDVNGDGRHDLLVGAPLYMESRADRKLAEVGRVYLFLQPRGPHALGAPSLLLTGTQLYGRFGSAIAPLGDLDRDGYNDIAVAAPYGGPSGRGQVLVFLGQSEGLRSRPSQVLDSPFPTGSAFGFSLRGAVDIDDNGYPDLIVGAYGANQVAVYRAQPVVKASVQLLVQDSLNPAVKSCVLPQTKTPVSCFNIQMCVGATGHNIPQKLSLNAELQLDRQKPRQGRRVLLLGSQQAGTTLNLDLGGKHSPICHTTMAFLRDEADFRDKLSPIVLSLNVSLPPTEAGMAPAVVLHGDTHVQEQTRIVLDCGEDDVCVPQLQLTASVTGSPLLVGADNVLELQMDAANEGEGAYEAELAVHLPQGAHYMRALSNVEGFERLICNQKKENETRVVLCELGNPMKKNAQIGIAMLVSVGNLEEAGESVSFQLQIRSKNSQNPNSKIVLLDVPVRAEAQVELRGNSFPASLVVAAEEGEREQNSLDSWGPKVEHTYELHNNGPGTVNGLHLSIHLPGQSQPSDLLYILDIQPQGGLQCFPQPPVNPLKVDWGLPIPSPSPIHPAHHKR
T1 sequence (P08514 891-1039 partner limits assumed): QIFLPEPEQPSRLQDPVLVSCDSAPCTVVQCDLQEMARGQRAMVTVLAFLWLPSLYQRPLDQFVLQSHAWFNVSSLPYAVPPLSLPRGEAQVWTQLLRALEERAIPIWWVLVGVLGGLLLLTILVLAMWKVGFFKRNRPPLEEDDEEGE
T1 sequence (P05106 27-788): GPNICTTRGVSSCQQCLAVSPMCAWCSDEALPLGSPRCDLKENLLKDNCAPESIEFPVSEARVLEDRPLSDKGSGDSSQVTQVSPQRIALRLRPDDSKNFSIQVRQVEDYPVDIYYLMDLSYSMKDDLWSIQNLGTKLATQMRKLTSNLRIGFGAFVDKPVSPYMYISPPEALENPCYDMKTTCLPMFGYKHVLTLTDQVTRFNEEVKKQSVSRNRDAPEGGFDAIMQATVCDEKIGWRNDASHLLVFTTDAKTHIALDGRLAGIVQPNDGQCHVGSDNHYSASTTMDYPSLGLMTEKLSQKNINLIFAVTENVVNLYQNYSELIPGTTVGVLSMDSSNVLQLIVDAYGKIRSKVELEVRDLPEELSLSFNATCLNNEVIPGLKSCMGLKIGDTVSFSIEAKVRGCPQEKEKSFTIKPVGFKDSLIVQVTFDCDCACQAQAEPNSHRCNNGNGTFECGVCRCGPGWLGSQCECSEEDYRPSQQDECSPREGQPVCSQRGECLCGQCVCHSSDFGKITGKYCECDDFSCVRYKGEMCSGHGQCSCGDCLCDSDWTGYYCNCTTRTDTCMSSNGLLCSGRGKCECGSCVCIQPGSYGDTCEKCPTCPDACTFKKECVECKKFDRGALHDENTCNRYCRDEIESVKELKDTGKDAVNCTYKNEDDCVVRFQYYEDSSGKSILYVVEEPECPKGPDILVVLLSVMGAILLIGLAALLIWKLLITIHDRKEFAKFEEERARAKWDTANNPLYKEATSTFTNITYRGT
Method: (§1) An ELISA assay based on the published method of Bethert et al., 2000, J Biol Chem 275, 33308-23, was employed.
(§2) Briefly, appropriate microtitre plates were coated with either Fibrinogen or Vitronectin (10 μg/well). These extracellular matrix proteins contain the RGD amino acid sequence that is recognized by αllbβ3 integrin. Human platelet membrane preparations were used as a source of αllbβ3 integrin and the cell line WM-115 was used as a source of αVβ3 integrin. Inhibition of the binding of αllbβ3 integrin containing membrane preparations to the extracellular matrix protein was determined by pre-incubating the platelet membrane preparation with test or control compounds. The binding of the αllbβ3 integrin containing membrane was the quantitated by using a rabbit anti-integrinβ3 antibody, a horse radish peroxidase coupled second antibody and a standard colorimetric detection system.
For `COC(=O)c1ccc(COC2C(O)C(COCc3ccccc3)OC(OC)C2NC(=O)CCNC(=N)N)cc1` (single isomer, unassigned) [Compound 13], the “INHIBITION @ 250 uM RECEPTOR allBb3 SUBSTRATE FIBRINOGEN” value was “+ (36% to 60% inhibition at 250 micromolar)”. In the case of `COC(=O)c1ccc(COC2C(O)C(COCc3ccccc3)OC(OC)C2NC(=O)CCNC(=N)N)cc1` (single isomer, unassigned) [Compound 14], the “INHIBITION @ 250 uM RECEPTOR allBb3 SUBSTRATE FIBRINOGEN” value is reported as “+ (36% to 60% inhibition at 250 micromolar)”. With `COC1OC(COCc2ccc(Br)cc2)C(O)C(OCc2ccc(C(=O)O)cc2)C1NC(=O)CCNC(=N)N` (single isomer, unassigned) [Compound 15] the “INHIBITION @ 250 uM RECEPTOR allBb3 SUBSTRATE FIBRINOGEN” value was “+ (36% to 60% inhibition at 250 micromolar)”. With `COC1OC(COCc2ccc(Br)cc2)C(O)C(OCc2ccc(C(=O)O)cc2)C1NC(=O)CCNC(=N)N` (single isomer, unassigned) [Compound 16] the “INHIBITION @ 250 uM RECEPTOR allBb3 SUBSTRATE FIBRINOGEN” value was “+ (36% to 60% inhibition at 250 micromolar)”. For `COC(=O)c1ccc(COC2C(O)C(COCc3ccc(Br)cc3)OC(OC)C2NC(=O)CCNC(=N)N)cc1` (single isomer, unassigned) [Compound 17], the “INHIBITION @ 250 uM RECEPTOR allBb3 SUBSTRATE FIBRINOGEN” value was “+ (36% to 60% inhibition at 250 micromolar)”. For `COC1OC(COCc2cccc(N)c2)C(O)C(OCc2ccc(C(=O)O)cc2)C1NC(=O)c1ccccc1` (single isomer, unassigned) [Compound 18], the “INHIBITION @ 250 uM RECEPTOR allBb3 SUBSTRATE FIBRINOGEN” value was “++ (61% to 80% inhibition at 250 micromolar)”. For `COC1OC(COCc2cccc(N)c2)C(O)C(OCc2ccc(C(=O)O)cc2)C1NC(=O)c1ccccc1` (single isomer, unassigned) [Compound 19], the “INHIBITION @ 250 uM RECEPTOR allBb3 SUBSTRATE FIBRINOGEN” value was “++ (61% to 80% inhibition at 250 micromolar)”. `COC1OC(COCc2ccccc2)C(O)C(OCc2cccc(N)c2)C1NC(=O)CCC(=O)O` (single isomer, unassigned) [Compound 20] was tested, and the “INHIBITION @ 250 uM RECEPTOR allBb3 SUBSTRATE FIBRINOGEN” value was “+++ (81% to 100% inhibition at 250 micromolar)”. In the case of `COC1OC(COCc2ccccc2)C(O)C(OCc2cccc(N)c2)C1NC(=O)CCC(=O)O` (single isomer, unassigned) [Compound 21], the “INHIBITION @ 250 uM RECEPTOR allBb3 SUBSTRATE FIBRINOGEN” value is reported as “+++ (81% to 100% inhibition at 250 micromolar)”. With `Nc1cccc(COC2C(O)C(COCc3ccccc3)OC(O)C2NC(=O)CCC(=O)O)c1` (single isomer, unassigned) [Compound 22] the “INHIBITION @ 250 uM RECEPTOR allBb3 SUBSTRATE FIBRINOGEN” value was “+ (36% to 60% inhibition at 250 micromolar)”. With `Nc1cccc(COC2C(O)C(COCc3ccccc3)OC(O)C2NC(=O)CCC(=O)O)c1` (single isomer, unassigned) [Compound 23] the “INHIBITION @ 250 uM RECEPTOR allBb3 SUBSTRATE FIBRINOGEN” value was “++ (61% to 80% inhibition at 250 micromolar)”. For `COC1OC(COCc2ccc(Br)cc2)C(O)C(OCc2cccc(N)c2)C1NC(=O)CCC(=O)O` (single isomer, unassigned) [Compound 24], the “INHIBITION @ 250 uM RECEPTOR allBb3 SUBSTRATE FIBRINOGEN” value was “+ (36% to 60% inhibition at 250 micromolar)”.

Same assay, conditions: substrate vitronectin, human platelet membrane preparation
In the case of `COC(=O)c1ccc(COC2C(O)C(COCc3ccccc3)OC(OC)C2NC(=O)CCNC(=N)N)cc1` (single isomer, unassigned) [Compound 13], the “INHIBITION 250 uM RECEPTOR allBb3 SUBSTRATE VITRONECTIN” value is reported as “+++ (81% to 100% inhibition at 250 micromolar)”. `COC(=O)c1ccc(COC2C(O)C(COCc3ccccc3)OC(OC)C2NC(=O)CCNC(=N)N)cc1` (single isomer, unassigned) [Compound 14] was tested, and the “INHIBITION 250 uM RECEPTOR allBb3 SUBSTRATE VITRONECTIN” value was “+++ (81% to 100% inhibition at 250 micromolar)”. In the case of `COC1OC(COCc2ccc(Br)cc2)C(O)C(OCc2ccc(C(=O)O)cc2)C1NC(=O)CCNC(=N)N` (single isomer, unassigned) [Compound 15], the “INHIBITION 250 uM RECEPTOR allBb3 SUBSTRATE VITRONECTIN” value is reported as “+++ (81% to 100% inhibition at 250 micromolar)”. With `COC1OC(COCc2ccc(Br)cc2)C(O)C(OCc2ccc(C(=O)O)cc2)C1NC(=O)CCNC(=N)N` (single isomer, unassigned) [Compound 16] the “INHIBITION 250 uM RECEPTOR allBb3 SUBSTRATE VITRONECTIN” value was “+++ (81% to 100% inhibition at 250 micromolar)”. For `COC(=O)c1ccc(COC2C(O)C(COCc3ccc(Br)cc3)OC(OC)C2NC(=O)CCNC(=N)N)cc1` (single isomer, unassigned) [Compound 17], the “INHIBITION 250 uM RECEPTOR allBb3 SUBSTRATE VITRONECTIN” value was “+++ (81% to 100% inhibition at 250 micromolar)”. With `COC1OC(COCc2cccc(N)c2)C(O)C(OCc2ccc(C(=O)O)cc2)C1NC(=O)c1ccccc1` (single isomer, unassigned) [Compound 18] the “INHIBITION 250 uM RECEPTOR allBb3 SUBSTRATE VITRONECTIN” value was “+++ (81% to 100% inhibition at 250 micromolar)”. With `COC1OC(COCc2cccc(N)c2)C(O)C(OCc2ccc(C(=O)O)cc2)C1NC(=O)c1ccccc1` (single isomer, unassigned) [Compound 19] the “INHIBITION 250 uM RECEPTOR allBb3 SUBSTRATE VITRONECTIN” value was “+++ (81% to 100% inhibition at 250 micromolar)”. For `COC1OC(COCc2ccccc2)C(O)C(OCc2cccc(N)c2)C1NC(=O)CCC(=O)O` (single isomer, unassigned) [Compound 20], the “INHIBITION 250 uM RECEPTOR allBb3 SUBSTRATE VITRONECTIN” value was “+++ (81% to 100% inhibition at 250 micromolar)”. With `Nc1cccc(COC2C(O)C(COCc3ccccc3)OC(O)C2NC(=O)CCC(=O)O)c1` (single isomer, unassigned) [Compound 22] the “INHIBITION 250 uM RECEPTOR allBb3 SUBSTRATE VITRONECTIN” value was “+ (36% to 60% inhibition at 250 micromolar)”. In the case of `Nc1cccc(COC2C(O)C(COCc3ccccc3)OC(O)C2NC(=O)CCC(=O)O)c1` (single isomer, unassigned) [Compound 23], the “INHIBITION 250 uM RECEPTOR allBb3 SUBSTRATE VITRONECTIN” value is reported as “+++ (81% to 100% inhibition at 250 micromolar)”. For `COC1OC(COCc2ccc(Br)cc2)C(O)C(OCc2cccc(N)c2)C1NC(=O)CCC(=O)O` (single isomer, unassigned) [Compound 24], the “INHIBITION 250 uM RECEPTOR allBb3 SUBSTRATE VITRONECTIN” value was “+++ (81% to 100% inhibition at 250 micromolar)”.

These molecules were tested against T2, αVβ3 integrin (Homo sapiens, UniProt P05106+P06756) (assay: ELISA: inhibition of binding of αVβ3 integrin (source WM-115 cell line) to coated extracellular matrix protein). Settings: WM-115 cell line as integrin source.
T2 construct: the cell line WM-115 was used as a source of αVβ3 integrin; endogenous in cells; host or cells: WM-115 cell line
T2 sequence (P06756 31-889 limits assumed): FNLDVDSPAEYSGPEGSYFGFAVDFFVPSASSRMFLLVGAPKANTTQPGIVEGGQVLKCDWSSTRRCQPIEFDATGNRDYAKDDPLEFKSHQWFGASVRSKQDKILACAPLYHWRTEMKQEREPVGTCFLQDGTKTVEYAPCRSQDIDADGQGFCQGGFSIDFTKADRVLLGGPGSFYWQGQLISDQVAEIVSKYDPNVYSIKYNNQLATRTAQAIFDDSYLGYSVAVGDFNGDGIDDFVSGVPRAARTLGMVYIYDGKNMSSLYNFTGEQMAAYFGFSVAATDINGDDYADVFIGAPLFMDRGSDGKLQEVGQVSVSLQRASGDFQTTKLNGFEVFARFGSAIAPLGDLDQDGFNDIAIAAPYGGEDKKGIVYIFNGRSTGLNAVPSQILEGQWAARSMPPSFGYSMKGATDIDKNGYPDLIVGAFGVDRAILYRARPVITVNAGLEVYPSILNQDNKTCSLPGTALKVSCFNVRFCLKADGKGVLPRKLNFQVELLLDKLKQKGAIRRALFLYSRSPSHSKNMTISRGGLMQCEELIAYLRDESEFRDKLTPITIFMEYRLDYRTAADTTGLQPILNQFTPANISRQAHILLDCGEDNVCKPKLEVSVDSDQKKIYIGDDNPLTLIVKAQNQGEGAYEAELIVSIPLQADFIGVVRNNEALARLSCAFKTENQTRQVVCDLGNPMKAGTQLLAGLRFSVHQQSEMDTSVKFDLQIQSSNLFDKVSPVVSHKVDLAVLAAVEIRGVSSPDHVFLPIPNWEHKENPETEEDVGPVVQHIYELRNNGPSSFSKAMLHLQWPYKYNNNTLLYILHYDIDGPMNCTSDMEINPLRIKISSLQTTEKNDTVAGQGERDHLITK
T2 sequence (P06756 891-1048 partner limits assumed): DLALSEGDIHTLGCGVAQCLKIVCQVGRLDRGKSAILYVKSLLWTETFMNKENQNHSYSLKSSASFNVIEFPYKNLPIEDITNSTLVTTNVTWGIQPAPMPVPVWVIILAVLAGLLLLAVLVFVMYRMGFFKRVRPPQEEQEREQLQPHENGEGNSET
T2 sequence (P05106 27-788): as the sequence (P05106 27-788) above
Method: as §1, §2
With `COC(=O)c1ccc(COC2C(O)C(COCc3ccccc3)OC(OC)C2NC(=O)CCNC(=N)N)cc1` (single isomer, unassigned) [Compound 13] the “INHIBITION 250 uM RECEPTOR aVb3 SUBSTRATE FIBRINOGEN” value was “− (0% to 35% inhibition at 250 micromolar)”. For `COC(=O)c1ccc(COC2C(O)C(COCc3ccccc3)OC(OC)C2NC(=O)CCNC(=N)N)cc1` (single isomer, unassigned) [Compound 14], the “INHIBITION 250 uM RECEPTOR aVb3 SUBSTRATE FIBRINOGEN” value was “++ (61% to 80% inhibition at 250 micromolar)”. `COC1OC(COCc2ccc(Br)cc2)C(O)C(OCc2ccc(C(=O)O)cc2)C1NC(=O)CCNC(=N)N` (single isomer, unassigned) [Compound 15] was tested, and the “INHIBITION 250 uM RECEPTOR aVb3 SUBSTRATE FIBRINOGEN” value was “++ (61% to 80% inhibition at 250 micromolar)”. `COC1OC(COCc2ccc(Br)cc2)C(O)C(OCc2ccc(C(=O)O)cc2)C1NC(=O)CCNC(=N)N` (single isomer, unassigned) [Compound 16] was tested, and the “INHIBITION 250 uM RECEPTOR aVb3 SUBSTRATE FIBRINOGEN” value was “++ (61% to 80% inhibition at 250 micromolar)”. `COC(=O)c1ccc(COC2C(O)C(COCc3ccc(Br)cc3)OC(OC)C2NC(=O)CCNC(=N)N)cc1` (single isomer, unassigned) [Compound 17] was tested, and the “INHIBITION 250 uM RECEPTOR aVb3 SUBSTRATE FIBRINOGEN” value was “+++ (81% to 100% inhibition at 250 micromolar)”. `COC1OC(COCc2cccc(N)c2)C(O)C(OCc2ccc(C(=O)O)cc2)C1NC(=O)c1ccccc1` (single isomer, unassigned) [Compound 18] was tested, and the “INHIBITION 250 uM RECEPTOR aVb3 SUBSTRATE FIBRINOGEN” value was “+++ (81% to 100% inhibition at 250 micromolar)”. In the case of `COC1OC(COCc2cccc(N)c2)C(O)C(OCc2ccc(C(=O)O)cc2)C1NC(=O)c1ccccc1` (single isomer, unassigned) [Compound 19], the “INHIBITION 250 uM RECEPTOR aVb3 SUBSTRATE FIBRINOGEN” value is reported as “+++ (81% to 100% inhibition at 250 micromolar)”. For `COC1OC(COCc2ccccc2)C(O)C(OCc2cccc(N)c2)C1NC(=O)CCC(=O)O` (single isomer, unassigned) [Compound 20], the “INHIBITION 250 uM RECEPTOR aVb3 SUBSTRATE FIBRINOGEN” value was “+++ (81% to 100% inhibition at 250 micromolar)”. In the case of `COC1OC(COCc2ccccc2)C(O)C(OCc2cccc(N)c2)C1NC(=O)CCC(=O)O` (single isomer, unassigned) [Compound 21], the “INHIBITION 250 uM RECEPTOR aVb3 SUBSTRATE FIBRINOGEN” value is reported as “+++ (81% to 100% inhibition at 250 micromolar)”. For `Nc1cccc(COC2C(O)C(COCc3ccccc3)OC(O)C2NC(=O)CCC(=O)O)c1` (single isomer, unassigned) [Compound 22], the “INHIBITION 250 uM RECEPTOR aVb3 SUBSTRATE FIBRINOGEN” value was “+ (36% to 60% inhibition at 250 micromolar)”. With `Nc1cccc(COC2C(O)C(COCc3ccccc3)OC(O)C2NC(=O)CCC(=O)O)c1` (single isomer, unassigned) [Compound 23] the “INHIBITION 250 uM RECEPTOR aVb3 SUBSTRATE FIBRINOGEN” value was “− (0% to 35% inhibition at 250 micromolar)”. For `COC1OC(COCc2ccc(Br)cc2)C(O)C(OCc2cccc(N)c2)C1NC(=O)CCC(=O)O` (single isomer, unassigned) [Compound 24], the “INHIBITION 250 uM RECEPTOR aVb3 SUBSTRATE FIBRINOGEN” value was “++ (61% to 80% inhibition at 250 micromolar)”.
